Experiment [1] deals with EAAT1. Conditions: oocytes, Voltage-Clamp, ref Arriza et al. (1994); cited from earlier work.
Experiment [2] has as its system EAAT2. More on the design: method as in Arriza et al. (1994). The note with it: oocytes, Voltage-Clamp, ref Arriza et al. (1994); cited from earlier work.
Experiment [3] deals with EAAT2. More on the design: method as in Arriza et al. (1994). Conditions: radio-labeled uptake, COS7 cells, ref Arriza et al. (1994); cited from earlier work.
Experiment [4] deals with EAAT1. Conditions: cited from earlier work.
The subject of experiment [5] is EAAT1. The note with it: radio-labeled uptake, COS7 cells, ref Arriza et al. (1994); cited from earlier work.
Experiment [6] relates to EAAT2. Conditions: cited from earlier work.
For experiment [7], the system named is EAAT3. The note with it: radio-labeled uptake, COS7 cells, ref Arriza et al. (1994); cited from earlier work.
Experiment [8] has as its system EAAT3. The note with it: cited from earlier work.
Another experiment concerns the target T1, SLC1A2 (EAAT2) (Homo sapiens, UniProt P43004).
T1 construct: host or cells: HEK293-JumpIn, doxycycline-induced
The experiment in a line: SSM-based electrophysiology (SURFE2R 96 SE), EAAT2 membrane fragments. Type of experiment: biochemical. The note with it: glutamic acid up to 500 µM, membrane 4 µg/well, read-out: SURFE^2R Km.

In experiment [9] the test system is EAAT1. The note with it: glutamic acid uptake assay, ref Vallejo-Illarramendi et al. (2005); cited from earlier work.
Experiment [10] has as its system EAAT3. The note with it: oocytes, Voltage-Clamp, ref Arriza et al. (1994); cited from earlier work.
[11] abbreviates: FLIPR membrane potential assay, ref Faure et al. (2006).
The mark [12] stands for this setting: similar methodologies (FLIPR), ref Alaux et al. (2005).

Read-outs that look alike come from different tables or passages of the source.

T1 sequence (P43004 whole entry): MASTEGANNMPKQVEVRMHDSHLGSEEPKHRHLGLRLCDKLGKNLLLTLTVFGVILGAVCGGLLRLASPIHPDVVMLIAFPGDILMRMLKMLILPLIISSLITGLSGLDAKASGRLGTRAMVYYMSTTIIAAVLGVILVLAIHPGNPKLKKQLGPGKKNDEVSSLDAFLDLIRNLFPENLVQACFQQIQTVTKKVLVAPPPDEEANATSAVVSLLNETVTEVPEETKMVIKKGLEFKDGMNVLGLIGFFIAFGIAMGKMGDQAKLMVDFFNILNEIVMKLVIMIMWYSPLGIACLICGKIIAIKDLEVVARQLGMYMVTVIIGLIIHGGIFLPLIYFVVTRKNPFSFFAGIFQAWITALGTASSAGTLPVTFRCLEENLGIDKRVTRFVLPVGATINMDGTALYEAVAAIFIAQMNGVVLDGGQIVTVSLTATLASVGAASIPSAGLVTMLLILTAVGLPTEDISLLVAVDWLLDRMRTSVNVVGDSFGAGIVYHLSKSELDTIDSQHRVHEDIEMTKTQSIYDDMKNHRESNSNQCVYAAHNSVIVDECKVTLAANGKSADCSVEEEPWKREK

Broadly, the Km is the substrate concentration at which the rate is half of its maximum. Turning to `N[C@@H](CCC(=O)O)C(=O)O` [glutamic acid, L-glutamic acid], the Km is 20 ± 3 µM with EAAT1 [1]; 18 ± 3 µM in the experiment with EAAT2 [2]; 97 ± 4 µM in the experiment with EAAT2 [3]; 7.9 µM in the experiment on EAAT1 [4] (setting [11]); 9.2 µM with EAAT1 [4] (setting [12]); 48 ± 10 µM in the experiment with EAAT1 [5]. In addition, the Km in the experiment on EAAT2 [6] (setting [11]) is 21 µM; in the experiment on EAAT2 [6] (setting [12]), 21 µM; with EAAT3 [7] it was 62 ± 8 µM; with EAAT3 [8] (setting [11]), 9.9 µM; in the experiment with EAAT3 [8] (setting [12]) it was 25 µM; at SLC1A2 (EAAT2) it was 9.5 µM. Also, the Km in the experiment with EAAT1 [9] is 27.5 ± 2.3 µM; with EAAT3 [10] it was 28 ± 6 µM.

The record behind these values is article PMC12041765, “The development of a high-throughput acoustic droplet ejection mass-spectrometry assay and a solid-supported membrane (SSM)-based electrophysiological assay to study the pharmacological inhibition of SLC1-A3, -A2 and -A1 in a drug discovery program” (Frontiers in Pharmacology, 2025).
